Data as given in US10391070B2, “Compositions and methods for treating neurological diseases or injury” (MUSC FOUNDATION FOR RESEARCH DEVELOPMENT, priority 2012, dated 2019).
Where two headings read alike, the source gives them in different places.

Key:
Format in all cases: cell-based, mouse
HT22 cells = test: In vitro neuroprotective activity against glutamate-induced cell death (MTS cell viability); conditions: HT22 cells; for EC50: 24 hrs, MTS, concentration producing 50% protection, read-out: Protection PC50
Experimental: The HT22 neuronal cell line is a subclone of HT4, derived from the mouse hippocampus (Morimoto and Koshland, 1990). […] HT22 cells were used. The cells were grown in Dulbecco's Modified Eagle's medium (DMEM/high glucose) supplemented with 10% fetal bovine serum (Hyclone) and 5 mL Antibiotic-Antimycotic (Amphotericin B, Penicillin, and Streptomycin; Invitrogen) at 37° C. in 5% CO2.
Cell viability was assessed by the ability of the viable cells to metabolize 3-(4,5-dimethylthiazol-2-yl)-5-(3-carboxymethoxyphenyl)-2(4-sulfophenyl)2-H-tetrazolium, inner salt (MTS), as described previously (Cory et al., 1991). The metabolism of tetrazolium salts is often used to measure cellular proliferation, but in the system used here, it has been previously shown to correlate well with cell viability as determined by trypan blue exclusion and colony-forming assays (Davis and Maher, 1994). Briefly, HT-22 cells were seeded onto 96-well plates at 5.0×10^3 cells per well in 75 μL of medium and maintained at 37° C. in 5% CO2 overnight prior to the initiation of experimental treatments. For glutamate toxicity testing, cells were subsequently treated with 25 μL of medium containing glutamate (monosodium glutamate, Sigma, 1 M stock concentration in media, to achieve a final concentration of 10 mM) plus inhibitors (stock in DMSO) and maintained at 37° C. in 5% CO2. For t-BuOOH toxicity testing, cells were subsequently treated with 25 μL of medium containing t-BuOOH (Sigma, 10 mM stock concentration, to achieve a final concentration of 50 μM) plus inhibitors (stock in DMSO) and maintained at 37° C. in 5% CO2 for 3 hours, after which the media was removed, cells washed gently with HBSS, the media replaced with standard culture media, and the cells returned to incubation at 37° C. in 5% CO2. For both glutamate and t-BuOOH treatments, 10 μl of MTS solution was added to each well 24 hrs after initial treatment, and the cells were maintained in growth medium for 2 h at 37° C. Absorbance at 490 nm was subsequently measured by a SpectraMax 190 plate reader (Molecular Devices). The growth medium without cells in the presence of MTS solution was used as solution background and untreated cells were considered the controls. Cell viability was calculated as a percentage compared with untreated controls. EC50 determinations were based on 12-point titrations using GraphPad Prism, and each experiment was repeated at least four times. Morphology of HT22 cells following treatments was determined by phase-contrast microscopy. Digital images of cells grown on cell culture plates were captured at 10× magnification.
The neuroprotective properties of VK and its derivatives were estimated through their protective effects against cell death in mouse neuronal HT22 cells induced by exposure to high levels of glutamate, which recapitulates a hallmark of the extracellular environment found in several neurodegenerative diseases and CNS injuries and is a well established model of neuronal oxidative stress. This investigation began by comparing the relative abilities of the two predominant naturally occurring forms of VK, VK1 and VK2, to prevent oxidative cell death. […] Several 1,4-naphthoquinones with various substitutions at the 2′ and 3′ positions were tested to determine the minimum structural requirement of the system and what the optimum scaffold for future developmental efforts and biological validation would be (FIG. 1B and Table 1). […] Substitution by a single methyl group at the 2′ position (VK3) improves the compound's ability to protect against cell death. Various other simple substituents at the 2′ and 3′ positions give the naphthoquinone structure the ability to prevent oxidative cell death at nanomolar concentrations (Table 1 and FIG. 16).

HO-1 = test: qRT-PCR of antioxidant response gene HO-1; conditions: HT22, 10 mM glutamate 16 hrs, relative to glutamate only
Experimental: HT22 cells were seeded onto cell culture treated 6-well plates at 3.0×10^5 cells per well in 2 mL of medium and maintained at 37° C. in 5% CO2 overnight prior to the initiation of experimental treatments. Cells were subsequently treated with 1 mL of medium containing glutamate (monosodium glutamate, Sigma-Aldritch, 1 M stock concentration in media, to achieve a final concentration of 10 mM) plus inhibitors (stock in DMSO) and maintained at 37° C. in 5% CO2. After 16 hrs, the media was collected and the cells harvested by trypsanization. After centrifugation, pelleted cells were washed with cold Hanks' Balanced Salt Solution (HBSS Ca^2+/Mg^2+ Free; Invitrogen; KCl 5.33 mM, KH2PO4 0.441 mM, NaHCO3 4.17 mM, NaCl 137.93 mM, Na2HPO4 0.338 mM, D-Glucose 5.56 mM), qRT-PCR was used to detect HO-1, NQO-1, and PGAM5 mRNAs in the HT22 cells. […] Therefore β2-microglobulin was used as a reference gene (Barrionuevo and Burggren, 1999). HT22 cells were cultured as described for 16 hrs. Total RNAs were extracted using the RNEasy kit (Qiagen), and transcripts of interest were amplified by PCR using the 1-step Syber Green qRT-PCR kit (Quanta) and the following specific primers (Harvard PrimerBank; Integrated DNA Technologies): HO-1, 5′-[…]-3′ (SEQ ID NO:1) and 5′-[…]-3′ (SEQ ID NO:2); PGAM5, 5′-[…]-3′ (SEQ ID NO:3) and 5′-[…]-3′ (SEQ ID NO:4); NQO-1, 5′-[…]-3′ (SEQ ID NO:5) and 5′-[…]-3′ (SEQ ID NO:6); and β2-microglobulin, 5′-[…]-3′ (SEQ ID NO:7) and 5′-[…]-3′ (SEQ ID NO:8). Linearity of the primers was verified before use, and fold changes were calculated as previously described using the Livak method (Barrionuevo and Burggren, 1999).

PGAM5 = test: Western blot, PGAM5 cleavage; conditions: HT22, glutamate
Experimental: (§1) HT-22 cells were cultured and treated as described above for the qRT-PCR experiments. After 16 hrs, the media was collected and the cells harvested by trypsanization. After centrifugation, pelleted cells were washed with cold HBSS Ca^2+/Mg^2+ Free, followed by lysis with a low salt lysis buffer (50 mM Tris-HCl, pH 7.4, 150 mM NaCl, 10% glycerol, 0.5 Triton X-100, 1× protease and phosphatase inhibitor cocktail) for 30 min, followed by a 15-s sonication pulse at 30 W. For Western blot analysis, the cell lysates were denatured with LDS loading buffer (Invitrogen) and run on Nupage 4-12% Tris-glysine gradient gels (Invitrogen) after centrifugation. Phosphorylated Drp1 (Ser637) (Cell Signaling) and total Drp1 (C5) (Santa Cruz), PGAM5 (K16) (Santa Cruz Biotechnology), Actin (Sigma-Aldritch) and alpha-Tubulin (Santa Cruz Biotechnology) were assessed with primary antibody, followed by rabbit, mouse, or goat IgG-HRP secondary antibody. The blot was developed using Pierce Thermo Dura-ECL reagent (Thermo-Fisher) and visualized using an ImageQuant LAS 4000 (GE). Digital images of membranes were quantified by computer-assisted densitometry using Image J 1.42q (National Institutes of Health, MD).

Drp1 = test: Western blot, phosphorylation of Drp1 (Ser637); conditions: HT22, 10 mM glutamate 16 hrs
Experimental: as §1

[1] = Mus musculus, HT-22, 10 mM glutamate

| Compound | EC50 (HT22 cells; [1]) [nM] | HO-1 gene expression (HO-1) | increase in lower band (cleavage product) of PGAM5 (PGAM5; 125 nM) | phosphorylation of Drp1 at Ser 637 (Drp1; 250 and 125 nM) | EC50 (HT22 cells; 10 mM glutamate) [nM] | other results |
| --- | --- | --- | --- | --- | --- | --- |
| C#CCNC1=CC(=O)c2ccccc2C1=O [Compound 2h, 2-(prop-2-yn-1-ylamino)naphthalene-1,4-dione] | 120 | – | – | – | – | – |
| O=C1C=C(NCc2ccccc2)C(=O)c2ccccc21 [Compound 2j, 2-(benzylamino)naphthalene-1,4-dione] | 88 | significantly decreased HO-1 expression | completely attenuated | the phosphorylation state is maintained | – | – |
| O=C1C=C(NCc2cccc(Cl)c2)C(=O)c2ccccc21 [Compound 2q, 2-((3-chlorobenzyl)amino)naphthalene-1,4-dione] | 31 | significantly decreased HO-1 expression | completely attenuated | the phosphorylation state is maintained | – | fold increase in PC50 potency over VK2 (HT22 cells; 10 mM glutamate): more than 10 fold; fold increase in PC50 potency over compound 2j (HT22 cells; 10 mM glutamate): ~3 fold |
| CC1=CC(=O)c2ccccc2C1=O [VK3, menadione, reference compound] | – | – | – | – | 797 | – |
| menaquinones [VK2, reference compound] | – | significantly decreased HO-1 expression | – | – | 432 | increase in lower band (cleavage product) of PGAM5 (PGAM5; 500 nM): completely attenuated; phosphorylation of Drp1 at Ser 637 (Drp1; 250 nM): less effective; phosphorylation of Drp1 at Ser 637 (Drp1; 500 nM): the phosphorylation state is maintained; protection from oxidative cell death (HT22 cells; glutamate): rescued HT22 cells from oxidative cell death |
